Assay results taken from patent publication US20240158446A1, “CYCLIC COMPOUND HAVING SELECTIVE INHIBITORY ACTION ON KRAS OVER HRAS AND NRAS” (CHUGAI SEIYAKU KABUSHIKI KAISHA, priority 2021, published 2024).
Where a SMILES comes first, the peptide text is derived from it. Bridges are numbered along the chain shown (N, C = ends). [ ]: non-standard residue; d: D form. The star is where a group is joined. hPhe(3-Cl-4-CF3) = N[C@@H](CCc1ccc(C(F)(F)F)c(Cl)c1)C(=O)O; NEtPhe(4-Me) = CCN[C@@H](Cc1ccc(C)cc1)C(=O)O; NMeAbu(4,4,4-F3) = CN[C@@H](CC(F)(F)F)C(=O)O; NMePhe(4-Me) = CN[C@@H](Cc1ccc(C)cc1)C(=O)O; NMeGly(cPent) = CN[C@H](C(=O)O)C1CCCC1; Hyp = O=C(O)[C@@H]1C[C@@H](O)CN1; NMeF = CN[C@@H](Cc1ccccc1)C(=O)O; NMeI = CC[C@H](C)[C@H](NC)C(=O)O; NMeD = CN[C@@H](CC(=O)O)C(=O)O; NMeL = CN[C@@H](CC(C)C)C(=O)O; NMeS = CN[C@@H](CO)C(=O)O; Morpholide = C1CN(*)CCO1; NMeA = CN[C@@H](C)C(=O)O; NMeAib = CNC(C)(C)C(=O)O; Nle = CCCC[C@H](N)C(=O)O; Piperidide = C1CCN(*)CC1; Ac5c = NC1(C(=O)O)CCCC1; Aze = O=C(O)[C@@H]1CCN1; NEtG = CCNCC(=O)O; Sar = CNCC(=O)O

What was measured:
[1] = target: GDP-bound KRAS wild-type protein (Homo sapiens, UniProt P01116); assay: Binding to KRAS by surface plasmon resonance (SPR), Single Cycle Kinetics; settings: SPR Single Cycle Kinetics, GDP-bound KRAS wild-type protein, 1:1 binding model; read-out: KRAS KD
GDP-bound KRAS wild-type protein, sequence (P01116 whole entry): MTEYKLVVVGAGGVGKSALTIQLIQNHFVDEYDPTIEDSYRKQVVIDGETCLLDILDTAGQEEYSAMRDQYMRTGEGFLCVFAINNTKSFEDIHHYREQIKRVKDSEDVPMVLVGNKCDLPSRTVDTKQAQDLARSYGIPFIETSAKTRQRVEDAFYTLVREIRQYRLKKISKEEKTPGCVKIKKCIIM

[2] = target: GDP-bound HRAS wild-type protein (Homo sapiens, UniProt P01112); assay: Binding to HRAS by surface plasmon resonance (SPR), Single Cycle Kinetics; settings: SPR, GDP-bound HRAS wild-type protein vs GDP-bound KRAS wild-type protein
GDP-bound HRAS wild-type protein, sequence (P01112 whole entry): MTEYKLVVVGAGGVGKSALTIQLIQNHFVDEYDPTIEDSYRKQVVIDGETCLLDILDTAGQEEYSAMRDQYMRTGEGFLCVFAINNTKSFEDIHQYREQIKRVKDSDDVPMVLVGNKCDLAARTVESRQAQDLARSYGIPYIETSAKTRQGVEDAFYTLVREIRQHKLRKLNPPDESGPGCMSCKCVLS

[3] = target: GDP-bound NRAS wild-type protein (Homo sapiens, UniProt P01111); assay: Binding to NRAS by surface plasmon resonance (SPR), Single Cycle Kinetics; settings: SPR, GDP-bound NRAS wild-type protein vs GDP-bound KRAS wild-type protein
GDP-bound NRAS wild-type protein, sequence (P01111 whole entry): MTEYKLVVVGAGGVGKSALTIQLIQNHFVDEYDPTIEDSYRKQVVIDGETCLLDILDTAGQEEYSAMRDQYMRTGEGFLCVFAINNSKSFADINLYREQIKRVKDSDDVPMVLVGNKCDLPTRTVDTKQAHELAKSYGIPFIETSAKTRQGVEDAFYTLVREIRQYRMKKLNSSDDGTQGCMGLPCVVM

Compound	Kd [1] [nM]	HRAS/KRAS (ratio of KD value for HRAS to KD value for KRAS) [2]	NRAS/KRAS (ratio of KD value for NRAS to KD value for KRAS) [3]
CC[C@H](C)[C@@H]1NC(=O)[C@H](CC(C)C)N(C)C(=O)C[C@@H](C(=O)N2CCOCC2)N(C)C(=O)[C@H](C2CCCC2)N(C)C(=O)C2(CCCC2)NC(=O)[C@@H]2CCCN2C(=O)[C@H](CCc2ccc(C(F)(F)F)c(Cl)c2)NC(=O)CN(CC)C(=O)[C@H](Cc2ccc(C)cc2)N(C)C(=O)CN(CC)C(=O)CN(C)C1=O [PP0029] ([NMeL]I[Sar][NEtG][NMePhe(4-Me)][NEtG][hPhe(3-Cl-4-CF3)]P[Ac5c][NMeGly(cPent)][NMeD]-Morpholide; lactam N-11)	7	C (A compound having a KD ratio of 0.1 or more and less than 3 is denoted as C)	C (A compound having a KD ratio of 0.1 or more and less than 3 is denoted as C)
CC[C@H](C)[C@@H]1NC(=O)[C@H](CC(C)C)N(C)C(=O)C[C@@H](C(=O)N2CCOCC2)N(C)C(=O)[C@H](C2CCCC2)N(C)C(=O)C2(CCCC2)NC(=O)[C@@H]2CCCN2C(=O)[C@H](CCc2ccc(C(F)(F)F)c(Cl)c2)NC(=O)CN(CC)C(=O)[C@H](Cc2ccc(C)cc2)N(CC)C(=O)CN(CC)C(=O)CN(C)C1=O [PP0030] ([NMeL]I[Sar][NEtG][NEtPhe(4-Me)][NEtG][hPhe(3-Cl-4-CF3)]P[Ac5c][NMeGly(cPent)][NMeD]-Morpholide; lactam N-11)	7.7	C (A compound having a KD ratio of 0.1 or more and less than 3 is denoted as C)	C (A compound having a KD ratio of 0.1 or more and less than 3 is denoted as C)
CC[C@H](C)[C@@H]1NC(=O)[C@H](CC(C)C)N(C)C(=O)C[C@@H](C(=O)N2CCOCC2)N(C)C(=O)[C@H](C2CCCC2)N(C)C(=O)C2(CCCC2)NC(=O)[C@@H]2CCCN2C(=O)[C@H](CCc2ccc(C(F)(F)F)c(Cl)c2)NC(=O)CN(C)C(=O)[C@H](Cc2ccc(C)cc2)N(C)C(=O)[C@H](CO)N(C)C(=O)CN(C)C1=O [PP0037] ([NMeL]I[Sar][NMeS][NMePhe(4-Me)][Sar][hPhe(3-Cl-4-CF3)]P[Ac5c][NMeGly(cPent)][NMeD]-Morpholide; lactam N-11)	7.6	C (A compound having a KD ratio of 0.1 or more and less than 3 is denoted as C)	C (A compound having a KD ratio of 0.1 or more and less than 3 is denoted as C)
CC[C@H](C)[C@@H]1NC(=O)[C@H](CC(C)C)N(C)C(=O)C[C@@H](C(=O)N2CCOCC2)N(C)C(=O)[C@H]([C@@H](C)CC)N(C)C(=O)C2(CCCC2)NC(=O)[C@@H]2CCCN2C(=O)[C@H](CCc2ccc(C(F)(F)F)c(Cl)c2)NC(=O)CN(C)C(=O)[C@H](Cc2ccc(C)cc2)N(CC)C(=O)CN(C)C(=O)CN(C)C1=O [PP0043] ([NMeL]I[Sar][Sar][NEtPhe(4-Me)][Sar][hPhe(3-Cl-4-CF3)]P[Ac5c][NMeI][NMeD]-Morpholide; lactam N-11)	0.87	C (A compound having a KD ratio of 0.1 or more and less than 3 is denoted as C)	C (A compound having a KD ratio of 0.1 or more and less than 3 is denoted as C)
CCCC[C@@H]1NC(=O)[C@H](CCc2ccc(C(F)(F)F)c(Cl)c2)NC(=O)CN(C)C(=O)[C@H](Cc2ccc(C)cc2)N(C)C(=O)[C@@H]2CCN2C(=O)[C@H](C)N(C)C(=O)[C@H]([C@@H](C)CC)NC(=O)[C@H](CC(C)C)N(C)C(=O)C[C@@H](C(=O)N2CCCCC2)N(C)C(=O)[C@H](CC(C)C)NC(=O)C(C)(C)N(C)C1=O [PP0047] ([NMeL]I[NMeA][Aze][NMePhe(4-Me)][Sar][hPhe(3-Cl-4-CF3)][Nle][NMeAib]L[NMeD]-Piperidide; lactam N-11)	18	C (A compound having a KD ratio of 0.1 or more and less than 3 is denoted as C)	C (A compound having a KD ratio of 0.1 or more and less than 3 is denoted as C)
CCCC[C@@H]1NC(=O)[C@H](CCc2ccc(C(F)(F)F)c(Cl)c2)NC(=O)CN(C)C(=O)[C@H](Cc2ccc(C)cc2)N(CC)C(=O)[C@@H]2CCN2C(=O)[C@H](C)N(C)C(=O)[C@H]([C@@H](C)CC)NC(=O)[C@H](CC(C)C)N(C)C(=O)C[C@@H](C(=O)N2CCCCC2)N(C)C(=O)[C@H](CC(C)C)NC(=O)C(C)(C)N(C)C1=O [PP0048] ([NMeL]I[NMeA][Aze][NEtPhe(4-Me)][Sar][hPhe(3-Cl-4-CF3)][Nle][NMeAib]L[NMeD]-Piperidide; lactam N-11)	63	C (A compound having a KD ratio of 0.1 or more and less than 3 is denoted as C)	C (A compound having a KD ratio of 0.1 or more and less than 3 is denoted as C)

Continued by falling Kd [1], values first:

Kd [1] [nM]	Compound	HRAS/KRAS (ratio of KD value for HRAS to KD value for KRAS) [2]	NRAS/KRAS (ratio of KD value for NRAS to KD value for KRAS) [3]
2.4	CC[C@H](C)[C@@H]1NC(=O)[C@H](CC(C)C)N(C)C(=O)C[C@@H](C(=O)N2CCOCC2)N(C)C(=O)[C@H](C2CCCC2)N(C)C(=O)C2(CCCC2)NC(=O)[C@@H]2CCCN2C(=O)[C@H](CCc2ccc(C(F)(F)F)c(Cl)c2)NC(=O)CN(CC)C(=O)[C@H](Cc2ccc(C)cc2)N(CC)C(=O)CN(C)C(=O)CN(C)C1=O [PP0028] ([NMeL]I[Sar][Sar][NEtPhe(4-Me)][NEtG][hPhe(3-Cl-4-CF3)]P[Ac5c][NMeGly(cPent)][NMeD]-Morpholide; lactam N-11)	C (A compound having a KD ratio of 0.1 or more and less than 3 is denoted as C)	C (A compound having a KD ratio of 0.1 or more and less than 3 is denoted as C)
2.3	CC[C@H](C)[C@@H]1NC(=O)[C@H](CC(C)C)N(C)C(=O)C[C@@H](C(=O)N2CCOCC2)N(C)C(=O)[C@H](CC(C)C)N(C)C(=O)C2(CCCC2)NC(=O)[C@@H]2CCCN2C(=O)[C@H](CCc2ccc(C(F)(F)F)c(Cl)c2)NC(=O)CN(C)C(=O)[C@H](Cc2ccc(C)cc2)N(CC)C(=O)CN(C)C(=O)CN(C)C1=O [PP0045] ([NMeL]I[Sar][Sar][NEtPhe(4-Me)][Sar][hPhe(3-Cl-4-CF3)]P[Ac5c][NMeL][NMeD]-Morpholide; lactam N-11)	C (A compound having a KD ratio of 0.1 or more and less than 3 is denoted as C)	C (A compound having a KD ratio of 0.1 or more and less than 3 is denoted as C)
0.37	CC[C@H](C)[C@@H]1NC(=O)[C@H](CC(F)(F)F)N(C)C(=O)C[C@@H](C(=O)N2CCOCC2)N(C)C(=O)[C@H](C2CCCC2)N(C)C(=O)C2(CCCC2)NC(=O)[C@@H]2CCCN2C(=O)[C@H](CCc2ccc(C(F)(F)F)c(Cl)c2)NC(=O)CN(C)C(=O)[C@H](Cc2ccc(C)cc2)N(CC)C(=O)CN(C)C(=O)CN(C)C1=O [PP0032] ([NMeAbu(4,4,4-F3)]I[Sar][Sar][NEtPhe(4-Me)][Sar][hPhe(3-Cl-4-CF3)]P[Ac5c][NMeGly(cPent)][NMeD]-Morpholide; lactam N-11)	C (A compound having a KD ratio of 0.1 or more and less than 3 is denoted as C)	C (A compound having a KD ratio of 0.1 or more and less than 3 is denoted as C)
0.18	CC[C@H](C)[C@@H]1NC(=O)[C@H](C)N(C)C(=O)C[C@@H](C(=O)N2CCOCC2)N(C)C(=O)[C@H](C2CCCC2)N(C)C(=O)C2(CCCC2)NC(=O)[C@@H]2CCCN2C(=O)[C@H](CCc2ccc(C(F)(F)F)c(Cl)c2)NC(=O)CN(C)C(=O)[C@H](Cc2ccc(C)cc2)N(CC)C(=O)CN(C)C(=O)CN(C)C1=O [PP0031] ([NMeA]I[Sar][Sar][NEtPhe(4-Me)][Sar][hPhe(3-Cl-4-CF3)]P[Ac5c][NMeGly(cPent)][NMeD]-Morpholide; lactam N-11)	C (A compound having a KD ratio of 0.1 or more and less than 3 is denoted as C)	B (a compound having 3 or more and less than 10 is denoted as B)
0.17	CC[C@H](C)[C@@H]1NC(=O)[C@H](CC(C)C)N(C)C(=O)C[C@@H](C(=O)N2CCOCC2)N(C)C(=O)[C@H](C2CCCC2)N(C)C(=O)C2(CCCC2)NC(=O)[C@@H]2CCCN2C(=O)[C@H](CCc2ccc(C(F)(F)F)c(Cl)c2)NC(=O)CN(C)C(=O)[C@H](Cc2ccccc2)N(C)C(=O)CN(C)C(=O)CN(C)C1=O [PP0039] ([NMeL]I[Sar][Sar][NMeF][Sar][hPhe(3-Cl-4-CF3)]P[Ac5c][NMeGly(cPent)][NMeD]-Morpholide; lactam N-11)	C (A compound having a KD ratio of 0.1 or more and less than 3 is denoted as C)	C (A compound having a KD ratio of 0.1 or more and less than 3 is denoted as C)
0.12	CCO[C@@H]1C[C@H]2C(=O)NC3(CCCC3)C(=O)N(C)[C@@H](C3CCCC3)C(=O)N(C)[C@H](C(=O)N3CCOCC3)CC(=O)N(C)[C@@H](CC(C)C)C(=O)N[C@@H]([C@@H](C)CC)C(=O)N(C)CC(=O)N(C)CC(=O)N(CC)[C@@H](Cc3ccc(C)cc3)C(=O)N(C)CC(=O)N[C@@H](CCc3ccc(C(F)(F)F)c(Cl)c3)C(=O)N2C1 [PP0042] ([NMeL]I[Sar][Sar][NEtPhe(4-Me)][Sar][hPhe(3-Cl-4-CF3)][Hyp](Et)[Ac5c][NMeGly(cPent)][NMeD]-Morpholide; lactam N-11)	C (A compound having a KD ratio of 0.1 or more and less than 3 is denoted as C)	C (A compound having a KD ratio of 0.1 or more and less than 3 is denoted as C)
